Reference: paper PMC10610379, “Epidrugs as Promising Tools to Eliminate Plasmodium falciparum Artemisinin-Resistant and Quiescent Parasites” (Pharmaceutics, 2023)
Several values for one entry are separate records, joined by “and”; a condition that tells them apart may be missing. Identical values can stand only once. Like-named read-outs stand apart in the source and are kept apart here.

What was measured:
NFF = settings: cited from earlier work
[1] = test system: Plasmodium falciparum F32-TEM (artemisinin-sensitive twin line); assay: Standard chemosensitivity assay (SYBR Green I), F32-TEM; type: cell-based; settings: Plasmodium falciparum; F32-TEM, 48 h incubation, SYBR Green I; mean ± SEM of 3 experiments (* mean of 2); read-out: Antiplasmodial Activity: IC50, F32-TEM
Protocol: (§1) They differ by eight mutations in seven genes (PF3D7_0110400, PF3D7_1343700, PF3D7_0213400, PF3D7_1115700, PF3D7_1302100, PF3D7_1459600, PF3D7_1464500) among them the M476I mutation on the kelch13 gene. F32-ART and F32-TEM strains have RSA^0–3 h values up to 12% and less than 0.1%, respectively. […] Both strains were cultured, in the same conditions, according to the Trager and Jensen protocol with modifications. Briefly, parasites were cultivated in RPMI-1640 medium (Biowest) at 2% hematocrit in human red blood cells and 5% human serum (EFS, French Blood Bank) under 5% CO2 in a humid atmosphere at 37 °C.
(§2) The antimalarial activities of the compounds were evaluated on both strains. […] Antimalarial activities were determined with the SYBR Green I method. Each drug concentration was tested in triplicate. The parasites were incubated with the drugs for 48 h. Plates were read on a BioTek FLX800 Microplate Fluorescence Reader (Bio-Tek instruments, Winooski, VT, USA) (λexcitation = 485 nm, λemission = 528 nm). Control parasite culture (i.e., RPMI with 0.5% DMSO) was referred to as 100% growth. IC50 and IC90 values were determined using GraphPad Prism version 7.05 (GraphPad Software, San Diego, CA, USA). Results were the mean of 3 independent experiments. When it is relevant, statistical significance between results obtained with both parasite strains was determined by a Mann–Whitney test using GraphPad Prism version 7.05.

H3K4me1 = assay: Immunoblotting, histone mark abundance in F32-ART parasites; type: cell-based, Plasmodium falciparum; settings: 270 nM
Protocol: (§3) Abundance of methylated and acetylated histone was determined in parasite cultures in different conditions: “not-treated”, “DHA 24 h”, “DHA 6 h/DHA 24 h” and “DHA 6 h/DHA + compound to be tested 24 h”. At the end of the treatments, parasite cultures were washed in RPMI-1640 and then twice in PBS 1× before red blood cell lysis with 0.075% saponin (Sigma-Aldrich) in PBS. Parasite ghosts were washed 3 times in PBS before incubating the ghosts with E1A lysis buffer (50 mM Hepes pH 7.5; 250 mM NaCl; 5 mM EDTA; 0.1% Triton X-100, 1 mM DTT, 0.2 mM PMSF supplemented with complete Mini EDTA-free protease inhibitor cocktail (Roche®, Basel, Switzerland)) for 15 min. Ghosts were then sonicated for 3 × 15s ON/OFF cycles to shear parasite membranes. Debris were pelleted by centrifuging for 15 min at 13,800× g and 4 °C, and supernatants (containing parasitic proteins) were then collected. Protein concentrations were determined using BCA assay (Bio-Rad, Hercules, CA, USA) according to the manufacturer’s instructions. For each sample, 10 µg of proteins were mixed with 4× sample buffer (10 mL 50% Glycerol, 5 mL 0.5 M Tris HCl pH 6.8, 4 mL 20% SDS, 0.02% Bromophenol blue for a total solution volume of 20 mL) and 100 mM DTT and then separated on 15% SDS-PAGE gels in Laemmli running buffer. Gels were then wet-transferred O/N at 20 V onto PVDF membranes. Membranes were blocked in TBST for 1 h at room temperature. Bottom parts were then probed with histone antibodies while upper parts were probed with PFALDOLASE antibody (Abcam, ab38905, Cambridge, UK) at 1:20,000 dilution. The following primary antibodies were used: anti-H3K4me1 (Abcam, ab8895); anti-H3K4me2 (Abcam, ab35356); anti-H3K9me2 (Abcam, ab1220); anti-H3K9me3 (Millipore, 07-442, Burlington, MA, USA); anti-tetra-acetyl H4 (Millipore, 06-866); anti-H4K8Ac (Millipore, 07-328); anti-H4K20me3 (Abcam, ab9053); anti-H3K4me3 (Diagenode) and anti-H3K9Ac (Millipore, 07-352) at 1:10,000. The following secondary antibodies were used: anti-rabbit IgG-Peroxidase produced in goat (Sigma-Aldrich) or anti-mouse IgG-Peroxidase (Sigma-Aldrich); at 1:20,000 dilutions. Blots were developed using ECL Prime Western Blotting (GE Healthcare, Chicago, IL, USA) and read on a Chemidoc touch imaging software. Densitometry analysis was performed by using ImageLab software from Bio-Rad. To determine if variations in histone abundances were statistically significant, immunoblotting experiments were performed on 3 biological replicates and each run was performed twice.

H3K4me2 = assay: as above; type: cell-based, Plasmodium falciparum; settings: 270 nM
Protocol: as §3

H3K4me3 = assay: as above; type: cell-based, Plasmodium falciparum; settings: 270 nM
Protocol: as §3

H4K20me3 = assay: as above; type: cell-based, Plasmodium falciparum; settings: 270 nM
Protocol: as §3

[2] = test system: ART-resistant parasites F32-ART at the quiescent stage; assay: Quiescent-stage Survival Assay (QSA), 48-h exposure; type: cell-based, Plasmodium falciparum
Protocol: The sensitivity of the ART-resistant parasites F32-ART at the quiescent stage towards the different molecules was determined using the QSA (Quiescent-stage Survival Assay), as previously described.
Epidrugs were tested at their IC90 values. In the present study, quiescence was induced using 3 µM of ART or 700 nM of DHA [28]. Thus, D-sorbitol synchronized ring-stage parasites at 3% parasitemia and 2% hematocrit (5 mL of culture per well in 6-well plates) were first exposed to 6 h of ART or DHA to induce quiescence and then to 48 h of the combination “ART or DHA + compound to be tested”. The combinations “ART 6 h/ART 48 h” or “DHA 6 h/DHA 48 h” were used as controls. The compounds were evaluated, in parallel, on proliferating parasites, i.e., without any pre-treatment. After drug exposure, parasite cultures were washed with 40 mL of RPMI-1640 medium and cultured in drug-free conditions supplemented with 10% human serum in new wells. The parasitemia for each condition was then microscopically monitored every 2 days. Culture media were renewed twice a week and 25 µL of fresh red blood cells were added once a week. Obtained data were used to perform Kaplan–Meier survival analyses considering censored data. The outcome was defined as the day when parasite cultures reached the initial parasitemia (3%) and data were considered as censored if no parasite recrudescence was observed during the 30-day experiment timeframe. When relevant, statistical significance between results obtained for the conditions “ART/ART” and “ART/ART + compound to be tested” or “DHA/DHA” and “DHA/DHA + compound to be tested” was determined by a Log Rank (Mantel Cox) test using GraphPad Prism version 7.05. For the best compounds targeting histones, in order to compare western blots data, modified QSAs were carried out by comparing “DHA 6 h/DHA 24 h” versus “DHA 6 h/DHA + compound to be tested 24 h”.

HFF = settings: read-out: Cytotoxicity: CC50 (HFF), data from literature ref 48; cited from earlier work
[3] = test system: Plasmodium falciparum F32-ART (artemisinin-resistant strain); assay: Standard chemosensitivity assay (SYBR Green I), F32-ART; type: cell-based; settings: for IC50: F32-ART, 48 h incubation, SYBR Green I, mean ± SEM of 3 experiments (* mean of 2), read-out: Antiplasmodial Activity: IC50, F32-ART; for Selectivity Index CC50/IC50: ratio cytotoxicity (mammalian cell type of the CC50)/antiplasmodial activity on F32-ART
Protocol: as §1, §2

[4] = test system: ART-resistant parasites F32-ART at the quiescent stage; assay: Modified QSA, 24-h exposure; type: cell-based, Plasmodium falciparum; settings: DHA 700 nM, compound at its IC90, 24-h exposure
Protocol: Epidrugs were tested at their IC90 values. In the present study, quiescence was induced using 3 µM of ART or 700 nM of DHA [28]. Thus, D-sorbitol synchronized ring-stage parasites at 3% parasitemia and 2% hematocrit (5 mL of culture per well in 6-well plates) were first exposed to 6 h of ART or DHA to induce quiescence and then to 48 h of the combination “ART or DHA + compound to be tested”. The combinations “ART 6 h/ART 48 h” or “DHA 6 h/DHA 48 h” were used as controls. The compounds were evaluated, in parallel, on proliferating parasites, i.e., without any pre-treatment. […] The parasitemia for each condition was then microscopically monitored every 2 days. […] When relevant, statistical significance between results obtained for the conditions “ART/ART” and “ART/ART + compound to be tested” or “DHA/DHA” and “DHA/DHA + compound to be tested” was determined by a Log Rank (Mantel Cox) test using GraphPad Prism version 7.05. […]
To collect enough material for immunoblotting, we performed the analysis after a 24-h exposure of DHA-treated parasites to the epidrug and in parallel evaluated the activity of the three epidrugs in a modified QSA, in which quiescent parasites were exposed to the drug to be tested for 24 instead of 48 h, as in our previous experiments (Figure 2).

[5] = 24 h, F32-ART ring stage proliferating, 3 replicates (Fig 3C)
[6] = DHA 6 h/DHA + TM2-115 24 h, F32-ART DHA-treated parasites, 3 replicates (Fig 3G)

O=C(CCCCCCC(=O)Nc1ccccc1)NO [SAHA]
CC50 (NFF; read-out: Cytotoxicity: CC50 (NFF), data from literature ref 43): 5500 nM

COc1cc2c(NC3CCN(C)CC3)nc(N3CCCN(C)CC3)nc2cc1OCc1ccccc1 [TM2-115]
IC50 [1]: 104 ± 32 nM
Fold change of H3K4me1 abundance, TM2-115 vs DMSO (H3K4me1; [5]): 1.37 and 0.47 and 2.10
Fold change of H3K4me1 abundance, TM2-115, quiescent stage (H3K4me1; [6]): did not induce a quantifiable change and 0.51 and 1.07 and 0.76
Fold change of H3K4me2 abundance, TM2-115 vs DMSO (H3K4me2; [5]): 1.31 and 1.11 and 0.85
Fold change of H3K4me2 abundance, TM2-115, quiescent stage (H3K4me2; [6]): did not induce a quantifiable change and 1.00 and 0.95 and 0.47
Fold change of H3K4me3 abundance, TM2-115 vs DMSO (H3K4me3; [5]): 1.39 and 1.69 and 1.12
Fold change of H3K4me3 abundance, TM2-115, quiescent stage (H3K4me3; [6]): did not induce a quantifiable change and 0.81 and 0.67 and 1.16
Fold change of H4K20me3 abundance, TM2-115 vs DMSO (H4K20me3; [5]): inhibited H4K20 methylation and 0.82 and 0.71 and 0.76
Fold change of H4K20me3 abundance, TM2-115, quiescent stage (H4K20me3; [6]): did not induce a quantifiable change and 1.10 and 1.20 and 0.97
Delay in parasite recrudescence time (difference between median recrudescence times), ART/ART + compound vs ART/ART ([2]; quiescence induced with ART 3 µM 6 h, then 48 h ART + compound at its IC90): 9.5 days
Delay in recrudescence time, DHA/DHA + compound vs DHA/DHA ([2]; quiescence induced with DHA 700 nM 6 h, then 48 h DHA + compound at its IC90): ≥ 6 days
CC50 (HFF): 5.7 µM
IC90 ([3]; Plasmodium falciparum, F32, concentration used in QSA and immunoblotting): 270 nM
IC50 ([3]; Plasmodium falciparum): 128 ± 30 nM
Selectivity Index CC50/IC50 [3]: 45
Recrudescence in modified QSA, DHA 6 h/DHA + compound 24 h vs DHA 6 h/DHA 24 h [4]: clearly impaired quiescent parasite survival

CC(/C=C/C(=O)NO)=C\[C@@H](C)C(=O)c1ccc(N(C)C)cc1 [Trichostatin A]
IC50 [1]: 30 ± 3 nM
IC50 ([3]; Plasmodium falciparum): 29 ± 12 nM
Selectivity Index CC50/IC50 [3]: 7
CC50 (NFF; read-out: Cytotoxicity: CC50 (NFF), data from literature ref 40): 200 nM
